Assay results: US10457691B2, “Macrocyclic kinase inhibitors and uses thereof” (Dana-Farber Cancer Institute, Inc., priority 2014, dated 2019)

How the values were obtained:
Type in all cases: biochemical
Details in all cases: read-out: Activity of the protein kinase when treated with compound I-1 (% control)
TAK1 = TAK1 (Homo sapiens, UniProt O43318); test: Protein kinase assay ([γ-32P] ATP), TAK1
Experimental: (§1) In another set of experiments, the activities of the compounds described herein against various protein kinases were determined according to the methods reported in Hastie et al., Nature Protocols, 2006, 1, 968-971.
(§2) Enzyme dilution buffer. This buffer consisted of 50 mM Tris-HCl, pH 7.5, 0.1 mM EGTA, 1 mg ml^−1 bovine serum albumin and 0.1% (vol/vol) 2-mercaptoethanol.
(§3) 10× concentrated assay buffer. An assay buffer of 500 mM Tris-HCl, pH 7.5, 1 mM EGTA, and 100 mM magnesium acetate was used for assay of a wide variety of protein kinases. In some experiments, other cofactors were included (e.g., calcium ions and calmodulin were included for assay of calcium-calmodulindependent protein kinases).
(§4) 1 mM [γ-^32P] ATP. The specific activity of the [γ-^32P] ATP solution was 1×10^5 to 1×10^6 c.p.m. per nmol depending on what was needed to produce an optimal signal/noise ratio. […] To measure the concentration of ATP, a sample of such a stock solution was diluted to 20 μM, and the absorbance of the diluted sample was measured at 259 nm. The absorbance of a 20-μM stock solution of ATP at 259 nm was about 0.31. […] ATP to produce a radioactivity of 1×10^5 to 1×10^6 c.p.m. per nmol. […]
(§5) 13) Measure radioactivity in the samples by Cerenkov counting (e.g., without liquid scintillation fluid) in a liquid scintillation counter using a “^32P program”. […]

TSSK1 = TSSK1 (Homo sapiens, UniProt Q9BXA7); test: Protein kinase assay ([γ-32P] ATP), TSSK1
Experimental: as §1, §2, §3, §4, §5

CK1γ2 = CK1γ2 (Homo sapiens, UniProt P78368); test: Protein kinase assay ([γ-32P] ATP), CK1γ2
Experimental: as §1, §2, §3, §4, §5

p38b MAPK = p38b MAPK (Homo sapiens, UniProt Q15759); test: Protein kinase assay ([γ-32P] ATP), p38b MAPK
Experimental: as §1, §2, §3, §4, §5

HER4 = HER4 (Homo sapiens, UniProt Q15303); test: Protein kinase assay ([γ-32P] ATP), HER4
Experimental: as §1, §2, §3, §4, §5

YES1 = YES1 (Homo sapiens, UniProt P07947); test: Protein kinase assay ([γ-32P] ATP), YES1
Experimental: as §1, §2, §3, §4, §5

TAO1 = TAO1 (Homo sapiens, UniProt Q7L7X3); test: Protein kinase assay ([γ-32P] ATP), TAO1
Experimental: as §1, §2, §3, §4, §5

PKBa = PKBa (Homo sapiens, UniProt P31749); test: Protein kinase assay ([γ-32P] ATP), PKBa
Experimental: as §1, §2, §3, §4, §5

PAK6 = PAK6 (Homo sapiens, UniProt Q9NQU5); test: Protein kinase assay ([γ-32P] ATP), PAK6
Experimental: as §1, §2, §3, §4, §5

Lck = Lck (Homo sapiens, UniProt P06239); test: Protein kinase assay ([γ-32P] ATP), Lck
Experimental: as §1, §2, §3, §4, §5

PKCγ = PKCγ (Homo sapiens, UniProt P05129); test: Protein kinase assay ([γ-32P] ATP), PKCγ
Experimental: as §1, §2, §3, §4, §5

NEK2a = NEK2a (Homo sapiens, UniProt P51955); test: Protein kinase assay ([γ-32P] ATP), NEK2a
Experimental: as §1, §2, §3, §4, §5

MNK2 = MNK2 (Homo sapiens, UniProt Q9HBH9); test: Protein kinase assay ([γ-32P] ATP), MNK2
Experimental: as §1, §2, §3, §4, §5

FGF-R1 = FGF-R1 (Homo sapiens, UniProt P11362); test: Protein kinase assay ([γ-32P] ATP), FGF-R1
Experimental: as §1, §2, §3, §4, §5

CHK2 = CHK2 (Homo sapiens, UniProt O96017); test: Protein kinase assay ([γ-32P] ATP), CHK2
Experimental: as §1, §2, §3, §4, §5

MKK6 = MKK6 (Homo sapiens, UniProt P52564); test: Protein kinase assay ([γ-32P] ATP), MKK6
Experimental: as §1, §2, §3, §4, §5

JNK2 = JNK2 (Homo sapiens, UniProt P45984); test: Protein kinase assay ([γ-32P] ATP), JNK2
Experimental: as §1, §2, §3, §4, §5

[1] = 0.1 μM of compound I-1, DMSO control = 100%
[2] = 1 μM of compound I-1, DMSO control = 100%

Sequence of FGF-R1 (P11362 22-822): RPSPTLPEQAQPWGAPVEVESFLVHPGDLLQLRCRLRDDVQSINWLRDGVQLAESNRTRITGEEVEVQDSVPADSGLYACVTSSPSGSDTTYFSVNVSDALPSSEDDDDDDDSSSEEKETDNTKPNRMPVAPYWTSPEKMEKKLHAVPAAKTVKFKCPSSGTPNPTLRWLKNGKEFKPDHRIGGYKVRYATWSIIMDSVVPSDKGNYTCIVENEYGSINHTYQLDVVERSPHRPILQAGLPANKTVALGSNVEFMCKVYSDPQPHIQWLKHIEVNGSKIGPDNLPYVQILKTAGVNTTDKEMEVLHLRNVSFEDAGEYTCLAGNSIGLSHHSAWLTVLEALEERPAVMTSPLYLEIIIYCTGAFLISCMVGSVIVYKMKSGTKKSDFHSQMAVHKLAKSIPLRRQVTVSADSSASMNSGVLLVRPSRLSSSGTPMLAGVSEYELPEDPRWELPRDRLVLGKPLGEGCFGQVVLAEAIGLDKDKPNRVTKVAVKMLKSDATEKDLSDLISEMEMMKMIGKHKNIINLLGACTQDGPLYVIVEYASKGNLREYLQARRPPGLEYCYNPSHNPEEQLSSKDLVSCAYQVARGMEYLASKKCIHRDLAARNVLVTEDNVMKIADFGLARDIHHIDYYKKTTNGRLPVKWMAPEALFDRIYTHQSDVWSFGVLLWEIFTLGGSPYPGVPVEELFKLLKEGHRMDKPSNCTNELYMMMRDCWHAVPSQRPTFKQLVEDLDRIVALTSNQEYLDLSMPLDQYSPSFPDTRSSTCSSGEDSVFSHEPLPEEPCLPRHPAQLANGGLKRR
Sequence of CHK2 (O96017 whole entry): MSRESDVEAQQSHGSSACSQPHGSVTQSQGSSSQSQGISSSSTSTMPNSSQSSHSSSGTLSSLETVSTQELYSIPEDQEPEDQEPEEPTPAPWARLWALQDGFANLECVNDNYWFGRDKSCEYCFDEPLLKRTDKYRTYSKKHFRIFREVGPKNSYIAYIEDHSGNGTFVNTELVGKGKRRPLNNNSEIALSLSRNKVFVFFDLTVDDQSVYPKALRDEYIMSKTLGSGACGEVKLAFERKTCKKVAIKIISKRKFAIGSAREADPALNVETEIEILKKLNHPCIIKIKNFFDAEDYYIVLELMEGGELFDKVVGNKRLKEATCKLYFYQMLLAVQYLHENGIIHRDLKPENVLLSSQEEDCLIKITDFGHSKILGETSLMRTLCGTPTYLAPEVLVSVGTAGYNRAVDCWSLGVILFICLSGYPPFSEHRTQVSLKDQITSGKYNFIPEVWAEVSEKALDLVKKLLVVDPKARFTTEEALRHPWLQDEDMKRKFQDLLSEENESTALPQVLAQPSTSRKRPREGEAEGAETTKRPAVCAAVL
Sequence of NEK2a (P51955 whole entry): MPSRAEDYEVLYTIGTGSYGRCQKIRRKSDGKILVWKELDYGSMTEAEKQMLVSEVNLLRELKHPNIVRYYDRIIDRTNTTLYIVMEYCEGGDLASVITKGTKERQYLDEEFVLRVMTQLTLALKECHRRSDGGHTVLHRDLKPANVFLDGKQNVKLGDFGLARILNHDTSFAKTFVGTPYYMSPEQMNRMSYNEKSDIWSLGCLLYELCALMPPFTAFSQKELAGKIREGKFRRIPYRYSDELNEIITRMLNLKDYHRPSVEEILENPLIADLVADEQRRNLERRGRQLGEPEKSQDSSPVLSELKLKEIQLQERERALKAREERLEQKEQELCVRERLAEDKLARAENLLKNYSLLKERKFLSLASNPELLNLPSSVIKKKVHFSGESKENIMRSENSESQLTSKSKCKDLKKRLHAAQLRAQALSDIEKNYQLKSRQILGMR
Sequence of HER4 (Q15303 26-1308): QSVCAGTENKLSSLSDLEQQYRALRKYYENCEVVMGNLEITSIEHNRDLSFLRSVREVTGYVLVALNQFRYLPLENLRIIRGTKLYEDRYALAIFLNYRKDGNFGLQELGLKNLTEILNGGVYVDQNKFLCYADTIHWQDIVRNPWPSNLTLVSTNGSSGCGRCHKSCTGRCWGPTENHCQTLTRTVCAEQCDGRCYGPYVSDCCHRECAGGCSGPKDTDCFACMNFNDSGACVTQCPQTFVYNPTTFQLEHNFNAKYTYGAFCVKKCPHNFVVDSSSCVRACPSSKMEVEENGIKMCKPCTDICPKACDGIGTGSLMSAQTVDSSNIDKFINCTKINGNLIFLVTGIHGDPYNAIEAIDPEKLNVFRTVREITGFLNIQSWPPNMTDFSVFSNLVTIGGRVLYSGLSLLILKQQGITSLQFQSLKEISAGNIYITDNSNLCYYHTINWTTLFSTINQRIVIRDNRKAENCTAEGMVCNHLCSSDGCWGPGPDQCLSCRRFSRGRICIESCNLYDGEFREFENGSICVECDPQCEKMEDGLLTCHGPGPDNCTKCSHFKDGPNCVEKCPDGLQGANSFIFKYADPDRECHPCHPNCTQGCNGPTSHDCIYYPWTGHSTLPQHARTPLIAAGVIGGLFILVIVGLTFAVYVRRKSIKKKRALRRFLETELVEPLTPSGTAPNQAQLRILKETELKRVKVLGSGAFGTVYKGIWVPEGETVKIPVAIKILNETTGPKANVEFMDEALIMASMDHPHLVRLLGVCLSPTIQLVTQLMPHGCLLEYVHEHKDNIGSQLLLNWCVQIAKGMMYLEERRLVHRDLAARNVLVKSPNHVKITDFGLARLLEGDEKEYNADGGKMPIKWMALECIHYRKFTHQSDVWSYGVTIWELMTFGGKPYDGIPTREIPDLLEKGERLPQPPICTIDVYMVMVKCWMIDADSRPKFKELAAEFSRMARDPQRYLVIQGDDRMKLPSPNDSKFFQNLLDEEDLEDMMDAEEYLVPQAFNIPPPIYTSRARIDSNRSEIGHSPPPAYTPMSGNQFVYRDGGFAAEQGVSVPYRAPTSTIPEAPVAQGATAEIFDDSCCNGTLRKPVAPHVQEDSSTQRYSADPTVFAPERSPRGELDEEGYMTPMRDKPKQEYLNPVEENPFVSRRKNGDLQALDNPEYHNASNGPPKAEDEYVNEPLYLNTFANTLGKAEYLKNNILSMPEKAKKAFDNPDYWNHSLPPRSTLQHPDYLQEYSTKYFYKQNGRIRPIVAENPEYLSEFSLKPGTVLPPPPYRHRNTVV
Sequence of Lck (P06239 whole entry): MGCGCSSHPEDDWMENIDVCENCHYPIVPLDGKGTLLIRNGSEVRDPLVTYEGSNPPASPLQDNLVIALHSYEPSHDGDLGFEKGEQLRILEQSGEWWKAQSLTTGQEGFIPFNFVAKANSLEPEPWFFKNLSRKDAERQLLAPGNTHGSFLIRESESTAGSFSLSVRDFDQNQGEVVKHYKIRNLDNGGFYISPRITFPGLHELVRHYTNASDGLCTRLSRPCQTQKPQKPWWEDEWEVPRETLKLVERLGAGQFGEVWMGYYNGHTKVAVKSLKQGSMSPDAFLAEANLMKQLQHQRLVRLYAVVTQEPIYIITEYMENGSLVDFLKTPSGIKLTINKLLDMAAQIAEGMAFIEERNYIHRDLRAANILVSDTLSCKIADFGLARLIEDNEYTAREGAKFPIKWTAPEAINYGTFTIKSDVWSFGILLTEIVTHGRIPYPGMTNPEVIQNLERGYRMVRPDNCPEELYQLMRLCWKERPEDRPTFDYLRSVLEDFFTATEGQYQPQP
Sequence of YES1 (P07947 whole entry): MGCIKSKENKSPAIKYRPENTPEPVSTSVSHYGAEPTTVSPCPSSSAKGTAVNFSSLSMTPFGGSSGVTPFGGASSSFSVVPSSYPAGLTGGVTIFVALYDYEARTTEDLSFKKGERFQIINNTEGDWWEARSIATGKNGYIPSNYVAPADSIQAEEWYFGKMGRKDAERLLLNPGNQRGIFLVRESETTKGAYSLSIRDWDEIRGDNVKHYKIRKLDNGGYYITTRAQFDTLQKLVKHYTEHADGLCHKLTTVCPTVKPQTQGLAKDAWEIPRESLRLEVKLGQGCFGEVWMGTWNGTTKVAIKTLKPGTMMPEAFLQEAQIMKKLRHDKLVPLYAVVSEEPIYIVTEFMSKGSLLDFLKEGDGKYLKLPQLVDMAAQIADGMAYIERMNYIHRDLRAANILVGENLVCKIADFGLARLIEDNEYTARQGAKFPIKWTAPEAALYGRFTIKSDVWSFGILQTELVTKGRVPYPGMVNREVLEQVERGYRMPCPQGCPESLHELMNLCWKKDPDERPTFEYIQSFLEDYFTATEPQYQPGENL
Sequence of JNK2 (P45984 whole entry): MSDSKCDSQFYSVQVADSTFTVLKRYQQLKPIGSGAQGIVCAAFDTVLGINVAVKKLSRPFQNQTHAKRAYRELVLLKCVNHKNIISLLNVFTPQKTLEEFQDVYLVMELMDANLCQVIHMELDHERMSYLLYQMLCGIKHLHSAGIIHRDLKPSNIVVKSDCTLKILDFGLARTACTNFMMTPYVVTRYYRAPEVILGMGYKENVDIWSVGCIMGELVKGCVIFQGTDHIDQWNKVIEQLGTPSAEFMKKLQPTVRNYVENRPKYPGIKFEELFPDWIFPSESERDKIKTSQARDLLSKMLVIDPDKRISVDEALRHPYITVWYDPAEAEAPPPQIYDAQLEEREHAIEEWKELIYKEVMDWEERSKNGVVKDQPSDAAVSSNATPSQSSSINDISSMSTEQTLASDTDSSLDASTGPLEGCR
Sequence of MKK6 (P52564 whole entry): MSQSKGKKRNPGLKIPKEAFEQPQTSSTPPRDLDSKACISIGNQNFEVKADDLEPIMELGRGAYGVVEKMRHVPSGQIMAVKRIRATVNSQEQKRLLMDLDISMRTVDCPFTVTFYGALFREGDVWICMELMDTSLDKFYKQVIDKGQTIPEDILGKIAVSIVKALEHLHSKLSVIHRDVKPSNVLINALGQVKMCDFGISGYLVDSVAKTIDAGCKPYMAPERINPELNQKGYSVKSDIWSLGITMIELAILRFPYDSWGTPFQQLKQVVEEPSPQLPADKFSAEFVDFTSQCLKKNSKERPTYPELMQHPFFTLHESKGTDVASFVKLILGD

Cc1cccc(C)c1NC(=O)N1C/C=C\COc2cccc(c2)Nc2cc1ncn2 [Compound I-1]
remaining activity at 0.1 µM (TAK1; [1]): 105% | remaining activity at 1 µM (TAK1; [2]): 81% | remaining activity at 0.1 µM (TSSK1; [1]): 83% | remaining activity at 1 µM (TSSK1; [2]): 85% | remaining activity at 0.1 µM (CK1γ2; [1]): 96% | remaining activity at 1 µM (CK1γ2; [2]): 100% | remaining activity at 0.1 µM (p38b MAPK; [1]): 83% | remaining activity at 1 µM (p38b MAPK; [2]): 29% | remaining activity at 0.1 µM (HER4; [1]): 100% | remaining activity at 1 µM (HER4; [2]): 71% | remaining activity at 0.1 µM (YES1; [1]): 10% | remaining activity at 1 µM (YES1; [2]): 15% | remaining activity at 0.1 µM (TAO1; [1]): 72% | remaining activity at 1 µM (TAO1; [2]): 34% | remaining activity at 0.1 µM (PKBa; [1]): 99% | remaining activity at 1 µM (PKBa; [2]): 86% | remaining activity at 0.1 µM (PAK6; [1]): 101% | remaining activity at 1 µM (PAK6; [2]): 78% | remaining activity at 0.1 µM (Lck; [1]): 4% | remaining activity at 1 µM (Lck; [2]): 3% | remaining activity at 0.1 µM (PKCγ; [1]): 98% | remaining activity at 1 µM (PKCγ; [2]): 92% | remaining activity at 0.1 µM (NEK2a; [1]): 97% | remaining activity at 1 µM (NEK2a; [2]): 85% | remaining activity at 0.1 µM (MNK2; [1]): 104% | remaining activity at 1 µM (MNK2; [2]): 108% | remaining activity at 0.1 µM (FGF-R1; [1]): 41% | remaining activity at 1 µM (FGF-R1; [2]): 12% | remaining activity at 0.1 µM (CHK2; [1]): 107% | remaining activity at 1 µM (CHK2; [2]): 72% | remaining activity at 0.1 µM (MKK6; [1]): 101% | remaining activity at 1 µM (MKK6; [2]): 93% | remaining activity at 0.1 µM (JNK2; [1]): 81% | remaining activity at 1 µM (JNK2; [2]): 34%
